{"source": "paper PMC5072831", "about": "“Novel Nuclear Factor-KappaB Targeting Peptide Suppresses β-Amyloid Induced Inflammatory and Apoptotic Responses in Neuronal Cells” (PLoS ONE, 2016)", "key": {"[1]": {"test_system": "NF-κΒ p65", "conditions": "ref [61]; cited from earlier work", "source_text": "There is increasing interest in developing disease modifying agents for neurodegenerative diseases based on molecular pathogenesis. […] As opposed to high throughput screening, computational design of interface peptide mimics followed by functional evaluation represe ..."}, "[2]": {"test_system": "caspase-3", "conditions": "ref [70], [71]; cited from earlier work", "source_text": "Multiple caspases including caspase-3 and caspase-9 are transcriptionally elevated in AD [66, 67]."}, "[3]": {"test_system": "human fetal brain cells (HFB)", "test": "CTG viability in human primary mixed brain cultures (HFB)", "format": "cell-based", "description": "HFB were prepared and cultured as described (S1 and S2 Docs). Briefly, cells were cultured in Neurobasal medium (Invitrogen) without phenol red supplemented with 1xB27, […], 1xantibiotic cocktail, 5ng/mL recombinant fibroblast growth factor 2 (bFGF) (Invitrogen), and 2μL/mL Normocin (InVivoGen, San Diego, CA, USA). Cells were counted and seeded onto poly-D-lysine (Sigma-Aldrich) coated 24-well plates (Corning, Lowell, MA, USA) at 1.5x10^5 cells per well and maintained at 37°C in a 5% CO2 incubator. Half media changes were performed every 4th day of culture and morphology was monitored via phase contrast microscopy. Culture medium was removed from cells on day 17 (DIV17) and replaced with Neurobasal medium with B27. […] Cells and conditioned media were harvested and stored for further analysis. Relative ATP concentration was measured using the CTG kit (Promega). Data is presented as ΔRLU = RLU of Aβ1–42 exposed cells–RLU unexposed cells. Conditioned media collected were assessed for specific cytokines using the OptEIA kits (BD Biosciences)."}, "[4]": {"test_system": "activated p65 NF-κΒ subunit", "test": "NF-κB assay, nuclear p65 DNA binding (TransAM) in HFB", "format": "cell-based, human", "conditions": "HFB exposed to Aβ1–42, 4 h, 5μg nuclear extract, TransAM ELISA; average+/-SD from two experiments", "description": "(§1) Primary HFB exposed to Aβ1–42 and treated with GA or CP as above was harvested at the end of 4h. Nuclear and cytoplasmic fractions were extracted using the CelLytic™ NuCLEAR™ Extraction Kit (Sigma) following manufacturer’s protocol. Five microgram of nuclear extracts was incubated in a 96-well plate coated with oligonucleotides containing the NF-κΒ consensus nucleotide sequence (5’-[…]-3’). The activated NF-κΒ bound to DNA was detected by anti-p65 antibody followed by a peroxidase coupled secondary antibody and substrate using the TransAM kit protocol (Active Motif). Nuclear extracts of Raji cells was used as the positive control.\nFig 6 Effect of GILZ analog (GA) treatment on human fetal brain cells (HFB): (A,B): Select GA decrease metabolic activity in Aβ1–42 exposed HFB. […] Cytoplasmic extracts of cells collected at 24h was assessed for viability by CTG assay. […] HFB cells were cultured as above and culture medium collected at 24hrs was assessed for pro-inflammatory (IL-1β, IL-6 and IL-17) (C, D, E and F) and anti-inflammatory (TGF-β) (G) cytokines. […] The p65 DNA binding activity was calculated as the ratio of absorbance from Aβ1–42 stimulated cells to that of unstimulated cells. […]\nWe measured nuclear p65 using activated NF-κΒ specific ELISA and calculated the p65 DNA binding activity as the ratio of absorbance form Aβ1–42 stimulated cells to that of unstimulated cells. […]"}, "[5]": {"test_system": "nuclear p50", "test": "Nuclear p50 in HFB", "format": "cell-based, human", "conditions": "HFB exposed to Aβ1–42", "description": "as §1\nWe measured nuclear p65 using activated NF-κΒ specific ELISA and calculated the p65 DNA binding activity as the ratio of absorbance form Aβ1–42 stimulated cells to that of unstimulated cells. […] There was a trend towards decreased nuclear p65 in Aβ1–42 exposed cells treated with GA-1 (6.13+/-1.3) and GA-2 (6.7+/-1.5) as compared to untreated cells (14.75+/-3.5). Nuclear p65 of Aβ1–42 exposed cells treated with CP-1, CP-2 and CP-3 measured 6.8+/-3.9, 10.2+/-2.9 and 10.1+/-3.7 respectively (Fig 6H). […] Although we observed slightly elevated nuclear p50 in Aβ1–42 (6.15+/-1.2) than in unexposed cells (0.5+/-2.7), no difference was observed between GA peptide of CP treated cells and untreated cells (data not shown)."}, "[6]": {"test_system": "IL-1β mRNA", "test": "IL-1β mRNA in HFB by quantitative real-time PCR", "format": "cell-based, human", "conditions": "Aβ1–42 exposure alone", "description": "(§2) Primary HFB exposed to Aβ1–42 and treated with GA or CP as above was harvested at the end of 24h. Total cellular RNA was isolated using Qiagen kit (Invitrogen, Carlsbad, CA) following manufacturer's protocol. Total RNA (2–4 μg) was reverse transcribed using iScript cDNA synthesis kit (Biorad, CA). The concentration of the cDNA was measured at 260 and 280 nm by the Gensys5 model UV-visible spectrophotometer (Thermoelectronic Corp.,CA). Real-time PCR was performed by using the SYBR green/ROX qPCR master mix (SABiosciences, Frederick, MD) according to manufacturer's recommendations on the CFX96 Touch™ Real-Time PCR Detection System (Biorad laboratories, Hercules, California, USA). Each reaction contains 2×12.5 μl of SYBR green Master Mix, 1 μl of 10 μM of primers and 50 ng of the cDNA, to a total volume of 25 μl. The thermal cycling conditions included an initial denaturation step at 50°C for 2 min, 95°C for 3 min, 39 cycles at 95°C for 30 s, annealing temperature at 54°C for 30 s and extension at 72°C for 30s. The primers are F-GAPDH-5′-[…]-3′; R-GAPDH:5′-G […]-3′(102bp); F-IL-1β:5′-[…]-3′; R-IL-1β:5′[…]-3′ (89 bp); F-IL-6:5′-[…] […] The difference in each gene-specific threshold between the samples from vehicle treated and GA or CP treated cells was determined to obtain the relative change in the specific mRNA. The magnitude of change in the mRNA was expressed as 2^ΔΔCt. […]"}, "[7]": {"test_system": "IL-6 mRNA", "test": "IL-6 mRNA in HFB by quantitative real-time PCR", "format": "cell-based, human", "conditions": "Aβ1–42 exposure alone", "description": "as §2"}, "[8]": {"test_system": "Caspase-3 mRNA", "test": "Caspase-3 mRNA in HFB by quantitative real-time PCR", "format": "cell-based, human", "conditions": "Aβ1–42 exposure alone", "description": "as §2"}, "[9]": {"test_system": "Caspase-9 mRNA", "test": "Caspase-9 mRNA in HFB by quantitative real-time PCR", "format": "cell-based, human", "conditions": "Aβ1–42 exposure alone", "description": "as §2"}, "[10]": {"conditions": "ref [67]; cited from earlier work"}}}
{"compound": "C=C1C(=O)[C@]23C[C@H]1C[C@H](OC(C)=O)[C@H]2[C@]1(C)[C@@H](OC(C)=O)C[C@H](O)C(C)(C)[C@H]1C(=O)[C@@H]3OC(C)=O", "note": "[adenanthin]", "values": [{"measurement": "effect in AD models", "setting": "[1]", "result": "interact with NF-κΒ p65, suppress inflammation and cytotoxicity in AD models"}]}
{"compound": "COc1ccc2[nH]cc(CCNC(C)=O)c2c1", "note": "[melatonin]", "values": [{"measurement": "effect on Aβ-induced caspase-3 activity", "setting": "[2]", "result": "suppress Aβ-induced caspase-3 activity"}]}
{"compound": "Aβ1–42: Purified Aβ1–42 peptide (American Peptide company), used as stimulus", "values": [{"measurement": "average RLU of cultures exposed to Aβ1–42", "setting": "[3]; lower end over different experiments", "result": "6067.25+/-903.05"}, {"measurement": "average RLU of cultures exposed to Aβ1–42", "setting": "[3]; upper end over different experiments", "result": "11574.25+/- 4139.3"}, {"measurement": "nuclear p65 DNA binding activity (ratio of absorbance, Aβ1–42 stimulated / unstimulated)", "setting": "[4]", "result": "14.75+/-3.5"}, {"measurement": "nuclear p50", "setting": "[5]", "result": "6.15+/-1.2"}, {"measurement": "IL-1β mRNA (in words)", "setting": "[6]", "result": "upregulation of mRNA for IL-1β"}, {"measurement": "IL-6 mRNA (in words)", "setting": "[7]", "result": "upregulation of mRNA for IL-1β and IL-6"}, {"measurement": "caspase 3 mRNA (in words)", "setting": "[8]", "result": "upregulation of mRNA for caspase 3"}, {"measurement": "caspase 9 mRNA (in words)", "setting": "[9]", "result": "upregulation of mRNA for caspase 3 and caspase 9"}]}
{"compound": "Oc1ccc(/C=C/c2cc(O)cc(O)c2)cc1", "note": "[resveratrol]", "values": [{"measurement": "effect in AD models", "setting": "[1]", "result": "interact with NF-κΒ p65, suppress inflammation and cytotoxicity in AD models"}]}
{"compound": "oncocin", "values": [{"measurement": "influx into CNS and distribution in brain parenchyma", "setting": "[10]", "result": "significant influx into CNS and distribution within the brain parenchyma"}]}
